One compound from patent publication US11344510B2, “Arylcyclohexylamine derivatives and their use in the treatment of psychiatric disorders” (Gilgamesh Pharmaceuticals, Inc., priority 2019, dated 2022) can be followed below.

Structures are written as SMILES.

This assay has as its system T1, monoamine transporters, MATs (SERT, NET, DAT, VMAT2).
T1 construct: rows headed: activity at MATs; stably transfected cells expressing the MAT of interest (HEK293 cells for SERT and NET)
Kind of assay: Monoamine uptake inhibition, monoamine transporters collectively. The format is cell-based. As to conditions: uptake inhibition. The protocol:
The ability of the compounds of the present invention to inhibit uptake of monoamines by the serotonin transporter (SERT), norepinephrine transporter (NET), dopamine transporter (DAT), and vesicular monoamine transporter 2 (VMAT2) (collectively monoamine transporters, MATs) was measured using fluorescent substrate uptake assays in transfected cells (Table 14). The binding affinities of select compounds were also determined in radioligand displacement assays at SERT, NET, and/or DAT (Table 14).
Uptake Inhibition. The ability of test compounds to block monoamine uptake by SERT, NET, DAT, and VMAT2 was determined using the Neurotransmitter Transporter Uptake Assay Kit manufactured by Molecular Devices (Cat #R8173). Briefly, stably transfected cells expressing the MAT of interest (HEK293 cells for SERT and NET; CHO cells for DAT) were grown and plated into 384-well plates at a concentration of 20,000 cells per well. Plates were then incubated for 16-20 h at 37° C. and 5% CO2. The medium was then aspirated and replaced with 25 μL of assay buffer (20 mM HEPES in HBSS, containing 0.1% BSA) containing the test compounds at the appropriate concentrations. Plates were then centrifuged at 300 rpm for 15 s and then incubated at 37° C. for 30 minutes. At this time, 25 μL of the proprietary fluorescent dye solution was added, the plates were incubated at 37° C. for 60 minutes, and then fluorescence was quantified on a plate reader (excitation wavelength=440 nm, emission wavelength=520 nm). The proprietary dye solution contains a mixture of 1) a fluorescent dye that mimics the endogenous substrates of MATs and is thereby actively transported to the intracellular compartment in the absence of an inhibitor and 2) a masking dye that inhibits the fluorescence of dye 1 in the extracellular compartment. Therefore, the overall fluorescence of the system increases as the fluorescent dye is transported into the cells.

In the case of `O=C1CCCCC1(c1ccccc1)N1CCOCC1` (stereo not shown) [Compound 31], the “activity at MATs” value is listed as “almost no activity”.
